Key:
Format in all cases: functional
[1] = Antioxidant activity assessed as peroxynitrite radical scavenging activity in presence of NaHCO3
[2] = Antioxidant activity assessed as H2O2 scavenging activity at 125 uM
[3] = Antioxidant activity assessed as peroxynitrite radical scavenging activity in absence of NaHCO3
[4] = Antioxidant activity assessed as singlet oxygen scavenging activity
[5] = Antioxidant activity assessed as hypochlorous acid scavenging activity
[6] = Antioxidant activity assessed as superoxide radical scavenging activity

SMILES | IC50 [1] [µM] | IC50 [3] [µM] | IC50 [5] [µM] | Activity [2] [%] | IC30 [4] [µM] | IC27 [6] [µM]
O=c1cc(/C=C/c2ccc(O)cc2)oc2cccc(O)c12 | 0.98 | 1.04 |  | 16.9 | 40 | 
O=c1cc(/C=C/c2ccc(O)cc2)oc2cc(O)cc(O)c12 | 1.21 | 1.25 | 8.5 | 10.6 | 72.3 | 
O=c1cc(/C=C/c2ccc(O)cc2)oc2ccccc12 | 1.23 | 1.2 |  |  | 105 | 56
O=c1cc(/C=C/c2ccc(O)cc2)oc2cc(O)ccc12 | 1.65 | 1.4 | 92 |  | 93.4 | 17.7
O=c1cc(/C=C/c2ccccc2)oc2cc(O)ccc12 |  |  | 72.3 |  |  | 55.9

More lines, main results first:

IC50 [1] [µM] | IC50 [3] [µM] | IC50 [5] [µM] | SMILES | Activity [2] [%] | IC30 [4] [µM] | IC27 [6] [µM]
0.63 | 0.26 | 3.9 | O=c1cc(/C=C/c2ccc(O)c(O)c2)oc2cc(O)cc(O)c12 | 66.7 | 2.3 | 28.8
0.61 | 0.3 | 18 | O=c1cc(/C=C/c2ccc(O)c(O)c2)oc2cc(O)ccc12 | 50.8 | 3.7 | 18.9
0.51 | 0.26 | 16.9 | O=c1cc(/C=C/c2ccc(O)c(O)c2)oc2cccc(O)c12 | 50.8 | 1.9 | 46.6
0.44 | 0.24 | 31.2 | O=c1cc(/C=C/c2ccc(O)c(O)c2)oc2ccccc12 | 44.1 | 2.7 | 42.4
40.6 | 46.6 | 5.7 | O=c1cc(/C=C/c2ccccc2)oc2cc(O)cc(O)c12 |  | 81.3 | 125

From ChEMBL document CHEMBL1140031, “Cyclic voltammetric analysis of 2-styrylchromones: relationship with the antioxidant activity” (Bioorg Med Chem, 2008)
